Measured values from patent US11787826B2, “Hydrocarbyl tin complex of alkynyl phosphonic acid with antitumor activity and application thereof” (priority 2020, dated 2023).
Like-named read-outs stand apart in the source and are kept apart here.

How the values were obtained:
Assay type in all cases: cell-based
[1] = tested on: HepG2 (liver cancer cells)
Experimental: (§1) MCF-7, HT-29, A549 and HepG2 cells are got from American Tissue Culture Collection, which are cultured with the culture medium containing 10% bovine fetal serum in a CO2-containing incubator at 37° C. MTT method is used to detect cell proliferation and growth inhibition. The number of experimental cells is adjusted to obtain the absorbance at 570 nm. 6 concentrations are set for the compound test solution (0.1 nmol/L˜10 μmol/L). The cells are treated for 72 hours. At least 3 parallel experiments and 3 repeated experiments are conducted for each concentration. The IC50 value is determined by statistical analysis.
(§2) Taking cisplatin as the contrast, the in vitro growth inhibitory activity of Compound 1 and Compound 2 on tumor cells are tested, including MCF7 (human breast cancer cells), HT-29 (human colon cancer cells), A549 (human lung cancer cells) and HepG2 (liver cancer cells).

[2] = tested on: MCF7 (human breast cancer cells)
Experimental: as §1, §2

[3] = tested on: HT-29 (human colon cancer cells)
Experimental: as §1, §2

[4] = tested on: A549 (human lung cancer cells)
Experimental: as §1, §2

[5] = HepG2 cells, MTT, 72 hours treatment
[6] = MCF7 cells, MTT, 72 hours treatment
[7] = HT-29 cells, MTT, 72 hours treatment
[8] = A549 cells, MTT, 72 hours treatment

| Compound | IC50 [1, 5] [nM] | IC50 [2, 6] [nM] | IC50 [3, 7] [nM] | IC50 [4, 8] [nM] | IC50 [1] [nM] | IC50 [2] [nM] | IC50 [3] [nM] | IC50 [4] [nM] |
| --- | --- | --- | --- | --- | --- | --- | --- | --- |
| N.N.[Cl][Pt][Cl] [Cisplatin, cisplatin, reference compound] | 17000 | 43000 | 35000 | 1300 | – | – | – | – |
| Tri-n-butyltin (IV) (3,5-dimethylphenyl) Acetylenyl Phosphonic Acid Derivatives [Compound 1] | 211 | 194 | 635 | 33 | – | – | – | – |
| tri-n-butyltin (IV) (3-Trifluoromethyl Phenyl) acetylenyl phosphonic acid derivatives [Compound 2] | – | – | – | – | 872 | 1730 | 962 | 274 |
